21 compounds from patent publication US20250388589A1, “TRICYCLIC HETEROCYCLIC DERIVATIVES, COMPOSITIONS AND USES THEREOF” (Danatlas Pharmaceuticals Co., Ltd., priority 2022, published 2025) can be followed below.

The target of assay [1] is hPARG (C-terminal His6-tag) (Homo sapiens (Human), UniProt Q86W56). Description: PARG Enzymatic Activity Assay (HTRF). Type of assay: biochemical. The following applies: hPARG 65 pM final, biotinylated-NAD ribosylated PARP1 8 nM final. The method, boiled down:
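E. coli-expressed enzyme (65 pM final) preincubated 60 min RT with compounds (10-point 4-fold dilution, duplicate) in 50 mM Tris pH 7.4, 3 mM EDTA, 1 mM DTT, 50 mM KCl, 0.01% Tween 20. Biotinylated-NAD ribosylated PARP1 substrate (8 nM final) reacted 10 min RT; Eu-streptavidin/anti-6HIS-XL665 HTRF read 665/620 nm after 60 min. IC50 from 4-parameter Hill fit.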
Background: In TR-FRET formats the signal depends on donor and acceptor labels being close together.

Assay [2] relates to Kuramochi cell line. Description: Cell Viability Assay (Cell Titer-Glo, 7 days). It counts as cell-based. To be noted: 168 h, Kuramochi cells, 7 days incubation, read-out: PARG Cell viability (IC50). A digest of the protocol:
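Kuramochi cells in RPMI with 10% FBS, seeded at 400 cells/well, were treated with a 9-point 3-fold dilution series in duplicate for 7 days at 37 °C, 5% CO2. Viability by CellTiter-Glo luminescence, normalised to DMSO and medium-only controls; IC50 from 4-parameter Hill fit.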
In general terms: In ATP-based viability assays light output follows the ATP content of the culture.

Sequence of hPARG (C-terminal His6-tag) (Q86W56 whole entry): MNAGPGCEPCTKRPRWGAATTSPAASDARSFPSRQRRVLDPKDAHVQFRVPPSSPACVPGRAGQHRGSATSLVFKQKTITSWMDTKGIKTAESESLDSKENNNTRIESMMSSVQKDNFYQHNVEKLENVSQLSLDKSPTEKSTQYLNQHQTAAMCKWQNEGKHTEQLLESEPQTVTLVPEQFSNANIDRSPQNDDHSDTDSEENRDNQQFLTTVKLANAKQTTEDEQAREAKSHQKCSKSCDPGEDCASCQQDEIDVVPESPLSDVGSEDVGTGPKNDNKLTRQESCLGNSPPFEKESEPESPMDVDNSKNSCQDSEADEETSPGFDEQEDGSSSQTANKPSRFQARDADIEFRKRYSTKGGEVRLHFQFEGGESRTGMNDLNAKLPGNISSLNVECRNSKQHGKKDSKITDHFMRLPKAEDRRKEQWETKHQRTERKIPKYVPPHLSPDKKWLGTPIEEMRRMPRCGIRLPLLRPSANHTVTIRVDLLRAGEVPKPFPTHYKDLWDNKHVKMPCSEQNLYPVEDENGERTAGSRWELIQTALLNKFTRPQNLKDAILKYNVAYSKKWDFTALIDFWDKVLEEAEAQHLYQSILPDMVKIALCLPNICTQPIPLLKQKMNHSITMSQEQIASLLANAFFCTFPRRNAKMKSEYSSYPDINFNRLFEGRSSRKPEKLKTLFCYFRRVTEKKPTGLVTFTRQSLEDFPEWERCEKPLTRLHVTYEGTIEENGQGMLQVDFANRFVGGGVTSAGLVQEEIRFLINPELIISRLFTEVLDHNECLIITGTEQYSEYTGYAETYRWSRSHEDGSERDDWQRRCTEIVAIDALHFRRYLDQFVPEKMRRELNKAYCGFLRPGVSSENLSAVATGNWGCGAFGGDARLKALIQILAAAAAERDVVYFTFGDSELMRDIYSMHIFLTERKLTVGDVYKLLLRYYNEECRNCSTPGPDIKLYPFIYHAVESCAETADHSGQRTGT

In the case of `CC1(NS(=O)(=O)c2ccc3c4c(C5CCN(C(=O)C(C)(C)O)CC5)ncnc4n(-c4nnc(C(F)F)s4)c3c2)CC1` [Example 94, 9-(5-(Difluoromethyl)-1,3,4-thiadiazol-2-yl)-4-(1-(2-hydroxy-2-methylpropanoyl)piperidin-4-yl)-N-(1-methylcyclopropyl)-9H-pyrimido[4,5-b]indole-7-sulfonamide], the 50% inhibitory concentration (IC50) in assay [1] and in assay [2] was < 100 nM each time.
Take `CO[C@H](C)C(=O)N1CCC(c2ncnc3c2c2ccc(S(=O)(=O)NC4(C)CC4)cc2n3-c2nnc(C(F)F)s2)CC1` [Example 95, (R)-9-(5-(Difluoromethyl)-1,3,4-thiadiazol-2-yl)-4-(1-(2-methoxypropanoyl)piperidin-4-yl)-N-(1-methylcyclopropyl)-9H-pyrimido[4,5-b]indole-7-sulfonamide]: the IC50 in assay [1] and in assay [2] was < 100 nM throughout.
On to `CO[C@@H](C)C(=O)N1CCC(c2ncnc3c2c2ccc(S(=O)(=O)NC4(C)CC4)cc2n3-c2nnc(C(F)F)s2)CC1` [Example 96, (S)-9-(5-(Difluoromethyl)-1,3,4-thiadiazol-2-yl)-4-(1-(2-methoxypropanoyl)piperidin-4-yl)-N-(1-methylcyclopropyl)-9H-pyrimido[4,5-b]indole-7-sulfonamide], for which the IC50 in assay [1] and in assay [2] was < 100 nM in each case.
Consider `CN(C)C(=O)c1ccc(-c2ncnc3c2c2ccc(S(=O)(=O)NC4(C#N)CC4)cc2n3-c2nnc(C(F)F)s2)cn1` [Example 97, 5-(7-(N-(1-cyanocyclopropyl)sulfamoyl)-9-(5-(difluoromethyl)-1,3,4-thiadiazol-2-yl)-9H-pyrimido[4,5-b]indol-4-yl)-N,N-dimethylpicolinamide], for which the IC50 in assay [1] and in assay [2] was < 100 nM throughout.
Take `C[C@H]1CN(c2ncnc3c2c2ccc(S(=O)(=O)NC4(C#N)CC4)cc2n3-c2nnc(C(F)F)s2)CCN1C` [Example 98, (S)—N-(1-Cyanocyclopropyl)-9-(5-(difluoromethyl)-1,3,4-thiadiazol-2-yl)-4-(3,4-dimethylpiperazin-1-yl)-9H-pyrimido[4,5-b]indole-7-sulfonamide]: the half-maximal inhibitory concentration (IC50) in assay [1] and in assay [2] was < 100 nM each time.
As for `C[C@H]1CN(c2ncnc3c2c2ccc(S(=O)(=O)NC4(C)CC4)cc2n3-c2nnc(C(F)F)s2)CCO1` [Example 99, (S)-9-(5-(Difluoromethyl)-1,3,4-thiadiazol-2-yl)-N-(1-methylcyclopropyl)-4-(2-methylmorpholino)-9H-pyrimido[4,5-b]indole-7-sulfonamide], the IC50 in assay [1] and in assay [2] was < 100 nM throughout.
Turning to `C[C@@H]1CN(C(=O)N(C)C)[C@@H](C)CN1c1ncnc2c1c1ccc(S(=O)(=O)NC3(C)CC3)cc1n2-c1nnc(C(F)F)s1` [Example 100, (2S,5R)-4-(9-(5-(difluoromethyl)-1,3,4-thiadiazol-2-yl)-7-(N-(1-methylcyclopropyl)sulfamoyl)-9H-pyrimido[4,5-b]indol-4-yl)-N,N,2,5-tetramethylpiperazine-1-carboxamide], the concentration for half-maximal inhibition (IC50) in assay [1] and in assay [2] was < 100 nM each time.
For `C[C@H]1CN(c2ncnc3c2c2ccc(S(=O)(=O)NC4(C)CC4)cc2n3-c2nnc(C(F)F)s2)CCN1C(=O)N(C)C` [Example 101, (S)-4-(9-(5-(Difluoromethyl)-1,3,4-thiadiazol-2-yl)-7-(N-(1-methylcyclopropyl)sulfamoyl)-9H-pyrimido[4,5-b]indol-4-yl)-N,N,2-trimethylpiperazine-1-carboxamide], the 50% inhibitory concentration (IC50) in assay [1] and in assay [2] was < 100 nM throughout.
Turning to `C[C@H]1CN(c2ncnc3c2c2cc(F)c(S(=O)(=O)NC4(C)CC4)cc2n3-c2nnc(C(F)F)s2)CCN1C(=O)N(C)C` [Example 102, (S)-4-(9-(5-(Difluoromethyl)-1,3,4-thiadiazol-2-yl)-6-fluoro-7-(N-(1-methylcyclopropyl)sulfamoyl)-9H-pyrimido[4,5-b]indol-4-yl)-N,N,2-trimethylpiperazine-1-carboxamide], the concentration for half-maximal inhibition (IC50) in assay [1] and in assay [2] was < 100 nM throughout.
With `CC(C)C(=O)N1CC=C(c2ncnc3c2c2cc(F)c(S(=O)(=O)NC4(C)CC4)cc2n3-c2nnc(C(F)F)s2)CC1` [Example 103, 9-(5-(Difluoromethyl)-1,3,4-thiadiazol-2-yl)-6-fluoro-4-(1-isobutyryl-1,2,3,6-tetrahydropyridin-4-yl)-N-(1-methylcyclopropyl)-9H-pyrimido[4,5-b]indole-7-sulfonamide], the 50% inhibitory concentration (IC50) in assay [1] and in assay [2] was < 100 nM each time.
On to `CN1CCC[C@@H]1C(=O)N1CCC(c2ncnc3c2c2ccc(S(=O)(=O)NC4(C#N)CC4)cc2n3-c2nnc(C(F)F)s2)CC1` [Example 104, N-(1-Cyanocyclopropyl)-9-(5-(difluoromethyl)-1,3,4-thiadiazol-2-yl)-4-(1-(methyl-D-prolyl)piperidin-4-yl)-9H-pyrimido[4,5-b]indole-7-sulfonamide], for which the IC50 in assay [1] was < 100 nM; in assay [2] it was 100 to 1000 nM.
For the compound `CC(=O)N1CCC(c2ncnc3c2c2ccc(S(=O)(=O)NC4(C#N)CC4)cc2n3-c2nnc(C(F)F)s2)CC1` [Example 105, 4-(1-acetylpiperidin-4-yl)-N-(1-cyanocyclopropyl)-9-(5-(difluoromethyl)-1,3,4-thiadiazol-2-yl)-9H-pyrimido[4,5-b]indole-7-sulfonamide], the IC50 in assay [1] and in assay [2] was < 100 nM throughout.
On to `C[C@H](O)C(=O)N1CCC(c2ncnc3c2c2ccc(S(=O)(=O)NC4(C#N)CC4)cc2n3-c2nnc(C(F)F)s2)CC1` [Example 106, (S)-N-(1-Cyanocyclopropyl)-9-(5-(difluoromethyl)-1,3,4-thiadiazol-2-yl)-4-(1-(2-hydroxypropanoyl)piperidin-4-yl)-9H-pyrimido[4,5-b]indole-7-sulfonamide], for which the half-inhibitory concentration (IC50) in assay [1] and in assay [2] was < 100 nM throughout.
On to `C[C@@H](O)C(=O)N1CCC(c2ncnc3c2c2ccc(S(=O)(=O)NC4(C#N)CC4)cc2n3-c2nnc(C(F)F)s2)CC1` [Example 107, (R)-N-(1-Cyanocyclopropyl)-9-(5-(difluoromethyl)-1,3,4-thiadiazol-2-yl)-4-(1-(2-hydroxypropanoyl)piperidin-4-yl)-9H-pyrimido[4,5-b]indole-7-sulfonamide], for which the IC50 in assay [1] and in assay [2] was < 100 nM throughout.
Consider `CO[C@@H](C)C(=O)N1CCC(c2ncnc3c2c2ccc(S(=O)(=O)NC4(C#N)CC4)cc2n3-c2nnc(C(F)F)s2)CC1` [Example 108, (S)-N-(1-Cyanocyclopropyl)-9-(5-(difluoromethyl)-1,3,4-thiadiazol-2-yl)-4-(1-(2-methoxypropanoyl)piperidin-4-yl)-9H-pyrimido[4,5-b]indole-7-sulfonamide], for which the concentration for half-maximal inhibition (IC50) in assay [1] and in assay [2] was < 100 nM each time.
For `CO[C@H](C)C(=O)N1CCC(c2ncnc3c2c2ccc(S(=O)(=O)NC4(C#N)CC4)cc2n3-c2nnc(C(F)F)s2)CC1` [Example 109, (R)-N-(1-cyanocyclopropyl)-9-(5-(difluoromethyl)-1,3,4-thiadiazol-2-yl)-4-(1-(2-methoxypropanoyl)piperidin-4-yl)-9H-pyrimido[4,5-b]indole-7-sulfonamide], the IC50 in assay [1] and in assay [2] was < 100 nM in each case.
As for `N#CC1(NS(=O)(=O)c2ccc3c4c(C5CCN(C(=O)[C@H]6CCCO6)CC5)ncnc4n(-c4nnc(C(F)F)s4)c3c2)CC1` [Example 110, (R)-N-(1-cyanocyclopropyl)-9-(5-(difluoromethyl)-1,3,4-thiadiazol-2-yl)-4-(1-(tetrahydrofuran-2-carbonyl)piperidin-4-yl)-9H-pyrimido[4,5-b]indole-7-sulfonamide], the concentration for half-maximal inhibition (IC50) in assay [1] and in assay [2] was < 100 nM throughout.
Regarding `N#CC1(NS(=O)(=O)c2ccc3c4c(C5CCN(C(=O)[C@@H]6CCCO6)CC5)ncnc4n(-c4nnc(C(F)F)s4)c3c2)CC1` [Example 111, (S)-N-(1-cyanocyclopropyl)-9-(5-(difluoromethyl)-1,3,4-thiadiazol-2-yl)-4-(1-(tetrahydrofuran-2-carbonyl)piperidin-4-yl)-9H-pyrimido[4,5-b]indole-7-sulfonamide], the IC50 in assay [1] and in assay [2] was < 100 nM throughout.
For `CN1CCC[C@H]1C(=O)N1CCC(c2ncnc3c2c2ccc(S(=O)(=O)NC4(C#N)CC4)cc2n3-c2nnc(C(F)F)s2)CC1` [Example 112, N-(1-cyanocyclopropyl)-9-(5-(difluoromethyl)-1,3,4-thiadiazol-2-yl)-4-(1-(methyl-L-prolyl)piperidin-4-yl)-9H-pyrimido[4,5-b]indole-7-sulfonamide], the values for the IC50 in assay [1] and in assay [2] were < 100 nM and 100 to 1000 nM, respectively.
As to `N#CC1(NS(=O)(=O)c2ccc3c4c(C5CCN(C(=O)C6COC6)CC5)ncnc4n(-c4nnc(C(F)F)s4)c3c2)CC1` [Example 113, N-(1-cyanocyclopropyl)-9-(5-(difluoromethyl)-1,3,4-thiadiazol-2-yl)-4-(1-(oxetane-3-carbonyl)piperidin-4-yl)-9H-pyrimido[4,5-b]indole-7-sulfonamide], the half-maximal inhibitory concentration (IC50) in assay [1] and in assay [2] was < 100 nM each time.
As to `N#CC1(NS(=O)(=O)c2ccc3c4c(C5CCN(C(=O)C6(O)CC6)CC5)ncnc4n(-c4nnc(C(F)F)s4)c3c2)CC1` [Example 114, N-(1-cyanocyclopropyl)-9-(5-(difluoromethyl)-1,3,4-thiadiazol-2-yl)-4-(1-(1-hydroxycyclopropane-1-carbonyl)piperidin-4-yl)-9H-pyrimido[4,5-b]indole-7-sulfonamide], the IC50 is < 100 nM in assay [1] and 100 to 1000 nM in assay [2].

Usually IC50 stands for the point on the concentration scale where inhibition reaches its midpoint.
